Results: PubChem BioAssay (NCI)
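Grown in 96-well plates, cells were treated for 48 hours with each compound at five concentrations. Insufficient inhibition: endpoint recorded as highest concentration tested. GI50: concentration for 50% inhibition of growth. Definition used: TGI = concentration required for complete inhibition of growth.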

Legend:
Experiment in all cases: DTP human tumour cell line panel, 48 h
MOLT-4 leukemia = system: MOLT-4 leukemia
NCI-H226 lung = system: NCI-H226 lung
HOP-62 NSCLC = system: HOP-62 NSCLC
SK-MEL-5 melanoma = system: SK-MEL-5 melanoma
BT-549 breast = system: BT-549 breast
HCT-116 colon = system: HCT-116 colon
SK-MEL-2 melanoma = system: SK-MEL-2 melanoma
HOP-92 NSCLC = system: HOP-92 NSCLC
CCRF-CEM leukemia = system: CCRF-CEM leukemia
HT29 colon = system: HT29 colon

Structure (SMILES) | GI50 (MOLT-4 leukemia) [nM] | TGI (MOLT-4 leukemia) [µM] | GI50 (NCI-H226 lung) [µM] | TGI (NCI-H226 lung) [µM] | GI50 (HOP-62 NSCLC) [µM] | TGI (HOP-62 NSCLC) [µM] | GI50 (SK-MEL-5 melanoma) [µM] | TGI (SK-MEL-5 melanoma) [µM] | GI50 (BT-549 breast) [µM] | TGI (BT-549 breast) [µM] | GI50 (HCT-116 colon) [µM] | TGI (HCT-116 colon) [µM] | GI50 (SK-MEL-2 melanoma) [µM] | TGI (SK-MEL-2 melanoma) [µM] | GI50 (HOP-92 NSCLC) [µM] | TGI (HOP-92 NSCLC) [µM] | GI50 (CCRF-CEM leukemia) [nM] | TGI (CCRF-CEM leukemia) [µM] | GI50 (HT29 colon) [µM] | TGI (HT29 colon) [µM]
COc1ccc(C(=O)c2cc(OC)c(OC)c(OC)c2)cc1/C=C/C(=O)c1ccc(O)cc1 | 841 | > 100 | 2.5 | 7.78 | 21.1 | 53.4 | 1.46 | 2.98 | 2.02 | 5.32 | 1.58 | 3.33 | 5.01 | 26.5 | 1.21 | 3.31 | 872 | > 100 | 5.35 | > 100
CC1=C(C(=O)Nc2ccc(F)c(Cl)c2)C(c2cccc(O)c2)NC(=S)N1 (stereo not drawn) | – | – | – | – | > 50 | > 50 | 11.2 | 40.3 | 12.1 | 36.8 | 34.2 | > 50 | 20.3 | > 50 | > 50 | > 50 | > 50000 | > 50 | – | –
CC(C)(C)[Si](C)(C)OC1[C@@H](O[Si](C)(C)C(C)(C)C)[C@@H](CNC(=O)NC(=O)NC(=O)CI)O[C@H]1n1cnc2c(NC(=O)Nc3ccccc3)ncnc21 (stereo partly drawn) | 718 | 3.12 | 10.4 | 20.6 | 0.392 | 1.28 | 8.73 | 16.3 | 6.89 | 13.9 | 2.82 | 9.08 | 8.07 | 17.7 | – | – | 30.1 | 0.102 | 0.225 | 0.771
O=P(Oc1ccccc1)(Oc1ccccc1)C(O)c1ccccc1 (stereo not drawn) | > 100000 | > 100 | – | – | 39.3 | > 100 | 53.1 | > 100 | > 100 | > 100 | 65.9 | > 100 | 81.4 | > 100 | – | – | > 100000 | > 100 | 78.1 | > 100
O=C(CCl)Nc1ccccc1SCc1cc(Cl)cc2c1OCOC2 | 2600 | 7.51 | 11.2 | 35.6 | 19.8 | 41.5 | 4.09 | 16.4 | 3.52 | 11.5 | 4.64 | 16.8 | 11.4 | 24.8 | 3.17 | 17.9 | 2180 | 5.35 | 4.27 | 14.5
CS(=O)(=O)c1ccc(Oc2nccc(-c3c(-c4ccc(F)cc4)ncn3C3CCNCC3)n2)cc1 | > 12900 | > 18.9 | – | – | > 25 | > 25 | > 25 | > 25 | > 25 | > 25 | > 25 | > 25 | > 25 | > 25 | – | – | – | – | > 22.2 | > 25
COC(=O)C/C(C)=C/[C@@H](O)[C@H]1O[C@@H]2CC/C(Cl)=C/C/C=C(/C)[C@H](OC(C)=O)CC(=O)O[C@@H]1C2 | 6150 | 19.8 | 4.76 | 11.8 | 2.5 | 7.17 | 0.875 | 3.42 | 1.89 | 7.73 | 3.22 | 7.85 | 0.581 | 9.62 | – | – | – | – | 1.26 | > 25
